Assay results as given in US8193147B2, “Use of copolymer 1 for treatment of muscular dystrophy” (Hadasit Medical Research Services & Development Ltd., priority 2007, dated 2012).

Tests used:
Assay type in all cases: in vivo, mouse
WT and dy^2J mice = assay: Observation of side effects during treatment; details: treated group; 200 μg GA IP three times a week for 13 weeks
Experimental: (§1) At 5 weeks of age WT and dy^2J animals were randomly divided to the treated and control groups. The animals were treated three times a week for 13 weeks.
No animal had paralysis with inability to reach food or water or dramatic weight loss (more than 10% weight loss between two weightings or 20% or more than its initial weight) or any other severe stress signs, that would necessitate withdrawal of the animal from the experiment.

dy^2j mice = assay: Muscle biopsy histology (Hematoxylin-Eosin), muscular fibrosis; details: dy^2j mice treated with GA for 12 weeks vs untreated; biopsies in week 17; FIG. 7
Experimental: Tissue analysis. […]
Muscle biopsies. Muscle biopsies were obtained from the hind limbs and were tested for:
1. Muscle histology hematoxylin and eosin stain (H&E) and Gommori trichrome stains

[1] = tested on: HO (homozygote) dy^2j mice; assay: Motion analysis by video-recording (EthoVision), HO dy2J mice
Experimental: (§2) Population: Twenty C57BL old mice were randomly divided into 4 groups (5 in each group):
as §1
(§3) Motion analysis by video-recording. At the end of the experiment (19 week of age) animal mobility and well-being were video recorded for 10 minutes sessions. The video films were analyzed using the EthoVision system (NBT-New Biotechnology, Jerusalem, Israel, video tracking system recording of activity and movement). Quantitative parameters of mobility of the animals including total distance, maximum distance in 0.2 second, average and peak velocity were calculated.

[2] = tested on: HO (homozygote) dy^2j mice; assay: Grip strength of hind and fore limbs (Grip Strength Meter) in GA-treated dy2J mice; details: for hind limbs strength (muscle grip strength per body weight): between week 7 and week 19, p=0.0017, FIG. 1A
Experimental: as §2
1. WT mice—treated saline 100 μl/IP
2. WT mice—treated with 200 μg GA/IP
3. HO mice—treated Saline 100 μl/IP
4. HO mice—treated with 200 μg GA/IP
as §1
Measurement of muscle strength (blind measurement). Once a week weight gain and total peak force (in Gram force/g bodyweight) were determined using electronic Grip Strength Meter, Columbus Instruments (Columbus, Ohio). Muscle strength measurements of both fore and hind limbs were performed according to Connolly A. M. et al., 2001. Mice were brought to the testing room and allowed to acclimatize for 10 minutes before the test begins. Five measurements (fore and hind limbs) were taken from each animal. The three highest measurements for each animal were averaged to give the strength score. Between the fore and hind measurements the mice were allowed to rest for 10 minutes. All measurements were performed by the same person.

[3] = tested on: WT (wild type) C57BL mice; assay: Motion analysis by video-recording (EthoVision), WT mice; details: WT GA vs WT saline
Experimental: as §2, §1, §3

glatiramer acetate [GA]
side effects (WT and dy^2J mice): No other side effects were noted
muscular fibrosis in muscle biopsies (dy^2j mice): significantly reduced muscular fibrosis
maximal distance in 0.2 sec period ([1]; HO GA treated vs untreated, p=0.016, FIG. 6): significantly longer
total 10-minutes average distance ([1]; HO GA treated vs untreated, p=0.052, FIG. 5): significantly longer
total ten minutes average velocity ([1]; HO GA-treated (n=5) vs untreated (n=4), p=0.051, FIG. 3): significantly faster
peak velocity in 0.2 sec period ([1]; HO GA-treated vs HO untreated, p=0.017, FIG. 4): significantly faster
mobility ([1]; treated dy^2j mice vs untreated dy^2j mice): improved significantly
mobility compared with wild type mice ([1]; treated dy^2j mice, at the end of the experiment): undistinguishable from the mobility of the wild type mice
fore limbs strength (muscle grip strength per body weight) ([2]; GA 200 μg IP three times a week, GA-treated HO vs untreated HO, p=0.13, FIG. 1B): only minimal effect
hind limbs strength (muscle grip strength per body weight) ([2]; GA 200 μg IP three times a week, GA-treated HO vs untreated HO): Significant increase
hind limbs strength (muscle grip strength per body weight) ([2]; GA 200 μg IP three times a week, GA-treated HO vs untreated HO, listed as Cop 1): improved significantly
percentage of hind limbs strength, end of the experiment ([2]; HO treated mice, age 19 weeks, 100% = WT saline group at age seven weeks, FIG. 2): 95.26%
percentage of hind limbs strength, initial ([2]; HO treated mice, week 7, 100% = WT saline group at age seven weeks, FIG. 2): 62.74%
hind limbs muscle strength compared with wild type mice ([2]; treated dy^2j mice, at the end of the experiment, IP injection): as strong as the wild type mice
peak velocity in 0.2 sec period ([3]; p=0.38, FIG. 4): not significantly different
maximal distance in 0.2 sec period ([3]; p=0.39, FIG. 6): not significantly different
total ten minutes average velocity ([3]; p=0.51, FIG. 3): not significantly different
total 10-minutes average distance ([3]; p=0.51, FIG. 5): not significantly different
